Assay results from US8710097B2, “Flavonoid dimers and methods of making and using such” (The Hong Kong Polytechnic University, priority 2006, dated 2014).

Key:
P388/ADR cells [1] = assay: cells; settings: P388/ADR
P388/ADR cells [2] = assay: Doxorubicin accumulation; format: cell-based, murine; settings: 10 μM doxorubicin, 2 h, FIG. 11A
[3] = system: tested MDR cell lines (drug resistant breast cancer and leukemia cells); format: cell-based
Text: Cell proliferation assay.

O=c1cc(-c2ccc(OCCOCCOCCOCCOc3ccc(-c4cc(=O)c5c(O)cc(O)cc5o4)cc3)cc2)oc2cc(O)cc(O)c12 [Compound 9d, 1,13-Bis[4′-((5,7-dihydroxy)-4H-chromen-4-on-2-yl)phenyl]-1,4,7,10,13-pentaoxamidecane]
reversal of resistance to taxol, vincristine and vinblastine (P388/ADR cells [1]; 5 μM 9d): completely reverse the resistance of P388/ADR to almost the sensitive level
effect on mitoxantrone resistance (P388/ADR cells [1]; 9d): no effect
saturating concentration for reversing doxorubicin and daunorubicin resistance (P388/ADR cells [1]; FIG. 8B, 9B): about 5 μM
RF, daunorubicin (P388/ADR cells [1]; daunorubicin + 5 μM 9d or VP): 20
RF, doxorubicin (P388/ADR cells [1]; doxorubicin + 5 μM 9d): 14
RF, mitoxantrone (P388/ADR cells [1]; mitoxantrone + 5 μM 9d): 2
RF, taxol (P388/ADR cells [1]; taxol + 5 μM 9d): 55
RF, vinblastine (P388/ADR cells [1]; vinblastine + 5 μM 9d): 22
RF, vincristine (P388/ADR cells [1]; vincristine + 5 μM 9d): 66
increase of doxorubicin accumulation, folds of control (P388/ADR cells [2]): about 2 folds
increase of cytotoxicity of anticancer drugs [3]: 6-50 RF
